According to patent publication US4396550A, “Dibenz [b,e] oxepin derivatives” (Kyowa Hakko Kogyo Co., Ltd., priority 1980, dated 1983):

Columns and labels:
[1] = system: isolated ileum of guinea-pig; assay: Test for antihistaminergic effects on the isolated ileum of guinea-pig (histamine contraction, in vitro); set-up: species or system guinea-pig (male Hartly-strain); settings: Cavia porcellus, 0.05 h; depressing ratio of 80% or more of histamine contraction; read-out: Antihistaminergic activity: MED
Method: (§1) Male Hartly-strain guinea-pigs weighing about 250 g are killed and the abdomen is opened. The part (2-3 cm in length) of the ileum 10 cm away from the caecum to the pylorus is cut off as a preparation. The preparation is suspended with serre-fine in a Magnus bath containing 10 ml of Tyrode's solution at 32±1° C. under an air bubble. The contraction of the ileum is recorded on Kymograph through hebel when 0.1 ml of acetylcholine at a concentration of 10^-3 g/ml is added to the Tyrode's solution.
(§2) On the other hand, 3 minutes after administration of the test compounds, the same procedure as mentioned above is carried out to record the contraction.
In this test, 0.1 ml of histamine at a concentration of 5×10^-3 g/l is used.

[2] = system: blood platelets (platelet-rich plasma); assay: Test for the inhibition of platelet aggregation (collagen-induced, platelet-rich plasma); format: cell-based, male white rabbits; settings: Oryctolagus cuniculus, Platelet, 0.05 h; depressing ratio of 50% of collagen-induced aggregation; compound 3 minutes before; read-out: Antiplatelet aggregation activity: MED
Method: In this test, 9 vols. of blood are sampled from the caroted artery of male white rabbits weighing 2 to 2.5 kg and placed in a silicon-coated flask containing 1 vol. of 3.8% sodium citrate. The thus obtained blood is centrifuged at 1,000 rpm for 15 minutes to obtain platelet-rich plasma. The aggregation of the blood platelets is observed using an aggregometer, when collagen is added to the platelet-rich plasma to the extent of the final concentration that 50% of platelet aggregation is caused in the presence of 100 γ/ml of aspirin. On the other hand, 3 minutes after administration of the test compounds to the platelet-rich plasma, the same procedure as mentioned above is carried out to observe the aggregation of blood platelet. The test compounds showing a depressing ratio of 50%, compared with the inhibition of aggregation by collagen alone, are concluded to have antiplatelet aggregation activity.

[3] = system: male dd-strain rats; assay: Acute toxicity test (minimum lethal dose); format: in vivo; settings: mortality for 7 days
Method: Groups of male dd-strain rats (each group consisting of five rats) weighing 20±1 g were used. The compounds of the present invention were administered orally (po: 0.3 mg/g) or intraperitoneally (ip: 0.1 mg/g). The MLD (minimum lethal dose) was calculated from the mortality for 7 days after the administration to obtain the results given in Table 1.

[4] = system: isolated ileum of guinea-pig; assay: Test for anticholinergic effects on the isolated ileum of guinea-pig (acetylcholine contraction, in vitro); set-up: species or system guinea-pig (male Hartly-strain); settings: Cavia porcellus, 0.05 h; depressing ratio of 80% or more of acetylcholine contraction; compound 3 minutes before; read-out: Anticholinergic activity: MED (minimum effective dose)
Method: as §1, §2

| SMILES | minimal effective concentration [1] | minimal effective concentration [2] | Acute toxicity: MLD (minimum lethal dose) ([3]; ip) | Acute toxicity: MLD (minimum lethal dose) ([3]; po) | minimal effective concentration [4] |
| --- | --- | --- | --- | --- | --- |
| CCc1ccc2c(c1)C(N1CCN(CCN)CC1)c1ccccc1CO2 (centres unmarked) [Compound 45, 2-ethyl-11-{4-(2-aminoethyl)-1-piperazinyl}-6,11-dihydrodibenz[b,e]oxepin] | 10 µg/mL | 100 µg/mL | 100 mg/kg | > 300 mg/kg | 10 µg/mL |
| CCN(CC)CCCNC1c2ccccc2COc2ccc(Cl)cc21 (centres unmarked) [Compound 5, 2-chloro-11-{3-(diethylamino)propyl}amino-6,11-dihydrodibenz[b,e]oxepin] | 1 µg/mL | 20 µg/mL | > 100 mg/kg | 300 mg/kg | 1 µg/mL |
| c1ccc(-c2ccc3c(c2)C(NC2CN4CCC2CC4)c2ccccc2CO3)cc1 (centres unmarked) [Compound 55, 2-phenyl-11-(3-quinuclidinyl)amino-6,11-dihydrodibenz[b,e]oxepin] | 1 µg/mL | 20 µg/mL | > 100 mg/kg | > 300 mg/kg | 3 µg/mL |
| CCc1ccc2c(c1)C(NC1CC(C)(C)NC(C)(C)C1)c1ccccc1CO2 (centres unmarked) [Compound 63, 2-ethyl-11-{4-(2,2,6,6-tetramethyl)piperidinyl}amino-6,11-dihydrodibenz[b,e]oxepin] | 3 µg/mL | 10 µg/mL | 100 mg/kg | 200 mg/kg | 3 µg/mL |
| CCN(CC)CCCNC1c2ccccc2COc2ccc(C)cc21 (centres unmarked) [Compound 4, 2-methyl-11-{3-(diethylamino)propyl}amino-6,11-dihydrodibenz[b,e]oxepin] | 10 µg/mL | 20 µg/mL | 100 mg/kg | 300 mg/kg | 10 µg/mL |
| CN1CCN(C2c3ccccc3COc3c(-c4ccccc4)cccc32)CC1 (centres unmarked) [Compound 47, 4-phenyl-11-(4-methyl-1-piperazinyl)-6,11-dihydrodibenz[b,e]oxepin] | 10 µg/mL | 10 µg/mL | 100 mg/kg | 200 mg/kg | 3 µg/mL |
| Cc1ccc2c(c1)C(NCCc1ccccn1)c1ccccc1CO2 (centres unmarked) [Compound 36, 2-methyl-11-{2-(2-pyridyl)ethyl}amino-6,11-dihydrodibenz[b,e]oxepin] | 3 µg/mL | 100 µg/mL | 100 mg/kg | 200 mg/kg | 10 µg/mL |
| CN(C)CCCNC1c2ccccc2COc2ccc(Cl)cc21 (centres unmarked) [Compound 50, 2-chloro-11-{3-(dimethylamino)propyl}amino-6,11-dihydrodibenz[b,e]oxepin] | 3 µg/mL | 50 µg/mL | > 100 mg/kg | 200 mg/kg | 10 µg/mL |
| CCc1ccc2c(c1)C(NCCCN(C)C)c1ccccc1CO2 (centres unmarked) [Compound 15, 2-ethyl-11-{3-(dimethylamino)propyl}amino-6,11-dihydrodibenz[b,e]oxepin] | 3 µg/mL | 20 µg/mL | > 100 mg/kg | > 300 mg/kg | 3 µg/mL |
| CCN(CC)CCCNC1c2ccccc2COc2ccc(F)cc21 (centres unmarked) [Compound 3, 2-fluoro-11-{3-(diethylamino)propyl}amino-6,11-dihydrodibenz[b,e]oxepin] | 10 µg/mL | 20 µg/mL | > 100 mg/kg | > 300 mg/kg | 10 µg/mL |
